Patent US20240343855A1, “PROCESS FOR THE PREPARATION OF POLYCARBODIIMIDES WITH AZIRIDINE FUNCTIONS, WHICH MAY BE USED AS CROSSLINKING AGENT” (Stahl International B.V., priority 2021, published 2024)

Tests used:
[1] = test system: GFP-based mouse embryonic stem (mES) reporter cell lines; conditions: ToxTracker; positive = at least 2 fold increase in GFP expression in any reporter
From the text: (§1) The genotoxicity can be measured by the ToxTracker® assay (Toxys, Leiden, The Netherlands) as further described herein. The ToxTracker® assay can be applied for pure substances or for compositions. The ToxTracker assay is a panel of six validated GFP-based mouse embryonic stem (mES) reporter cell lines that can be used to identify the biological reactivity and potential carcinogenic properties of newly developed compounds in a single test. ToxTracker is a mammalian stem cell-based assay that monitors activation of specific cellular signalling pathways for detection of the biological reactivity of compounds. […] A compound is considered not genotoxic when it induces a smaller than 2-fold increase in GFP expression in any of the reporters measured by the ToxTracker® assay (Toxys, Leiden, The Netherlands).
(§2) The genotoxicity was measured by the ToxTracker® assay (Toxys, Leiden, The Netherlands), which can be applied for pure substances or for compositions. […]
(§3) The six independent mES reporter cell lines were seeded in gelatin-coated 96-well cell culture plates in 200 μl mES cell medium (50.000 cells per well). […] Induction of the GFP reporters was determined after 24 h exposure using a flow cytometer. Only GFP expression in intact single cells was determined. Mean GFP fluorescence was measured and used to calculate GFP reporter induction compared to a vehicle control treatment. […]

Bscl2-GFP reporter = assay type: cell-based, mouse; conditions: 24 h exposure; in absence and presence of S9
From the text: as §1, with “compounds. In contrast to the cancer-derived cell lines that are currently used for in vitro genotoxicity testing, stem cells are genetically stable and proficient in all cellular pathways required for accurate detection of potentially carcinogenic properties of compounds. Extensive whole-genome transcription profiling has led to identification of a panel of biomarker genes that are preferentially activated upon exposure to different classes of carcinogens and toxicants.” for “compounds.”
as §2
as §3, with “treatment. Cytotoxicity was estimated by cell count after 24 h exposure using a flow cytometer and was expressed as percentage of intact cells after 24 h exposure compared to vehicle exposed controls.” for “treatment.”

Rtkn-GFP reporter = assay type: cell-based, mouse; conditions: 24 h exposure; in absence and presence of S9
From the text: as §1, with “compounds. In contrast to the cancer-derived cell lines that are currently used for in vitro genotoxicity testing, stem cells are genetically stable and proficient in all cellular pathways required for accurate detection of potentially carcinogenic properties of compounds. Extensive whole-genome transcription profiling has led to identification of a panel of biomarker genes that are preferentially activated upon exposure to different classes of carcinogens and toxicants.” for “compounds.”
as §2
as §3, with “treatment. Cytotoxicity was estimated by cell count after 24 h exposure using a flow cytometer and was expressed as percentage of intact cells after 24 h exposure compared to vehicle exposed controls.” for “treatment.”

Btg2-GFP reporter = assay type: cell-based, mouse; conditions: 24 h exposure; in absence and presence of S9
From the text: as §1, with “compounds. In contrast to the cancer-derived cell lines that are currently used for in vitro genotoxicity testing, stem cells are genetically stable and proficient in all cellular pathways required for accurate detection of potentially carcinogenic properties of compounds. Extensive whole-genome transcription profiling has led to identification of a panel of biomarker genes that are preferentially activated upon exposure to different classes of carcinogens and toxicants.” for “compounds.”
as §2
as §3, with “treatment. Cytotoxicity was estimated by cell count after 24 h exposure using a flow cytometer and was expressed as percentage of intact cells after 24 h exposure compared to vehicle exposed controls.” for “treatment.”

O=C(CCN1CC1)OCC(CO)(COC(=O)CCN1CC1)COC(=O)CCN1CC1 [CL-427, 1-Aziridinepropanoic acid, 1,1′-[2-[[3-(1-aziridinyl)-1-oxopropoxy]methyl]-2-(hydroxymethyl)-1,3-propanediyl]ester] was tested, and the genotoxicity conclusion [1] was “considered genotoxic”, the “activation of the Bscl2-GFP reporter” value (Bscl2-GFP reporter) was “activated” and the “activation of the Rtkn-GFP reporter” value (Rtkn-GFP reporter) was “activated”. For the same molecule, the “activation of the Btg2-GFP reporter” value (Btg2-GFP reporter) was “activated”.
